This is an account of results in PMC4263554, “A Comparative Study of Impedance versus Optical Label-Free Systems Relative to Labelled Assays in a Predominantly Gi Coupled GPCR (C5aR) Signalling” (Biosensors, 2012).

By IC50 is commonly meant the midpoint of a concentration-inhibition curve. What is called EC50 is the concentration that produces a half-maximal response.

“And” between values parts separate entries of the source, which are not always exact repeats. Equal values may be shown once. “Also recorded” adds a separate entry of the source. Non-standard residues stand in square brackets, D forms with d. Residues, ends and D or L forms follow the SMILES beside them. d1Nal = N[C@H](Cc1cccc2ccccc12)C(=O)O; NMeF = CN[C@@H](Cc1ccccc1)C(=O)O; dCha = N[C@H](CC1CCCCC1)C(=O)O

Experiment [1] concerns the target T1, human C5aR (Homo sapiens, UniProt P21730).
T1 construct: host or cells: CHO cells, stably transfected (G418 selection)
T1 sequence (P21730 1-350): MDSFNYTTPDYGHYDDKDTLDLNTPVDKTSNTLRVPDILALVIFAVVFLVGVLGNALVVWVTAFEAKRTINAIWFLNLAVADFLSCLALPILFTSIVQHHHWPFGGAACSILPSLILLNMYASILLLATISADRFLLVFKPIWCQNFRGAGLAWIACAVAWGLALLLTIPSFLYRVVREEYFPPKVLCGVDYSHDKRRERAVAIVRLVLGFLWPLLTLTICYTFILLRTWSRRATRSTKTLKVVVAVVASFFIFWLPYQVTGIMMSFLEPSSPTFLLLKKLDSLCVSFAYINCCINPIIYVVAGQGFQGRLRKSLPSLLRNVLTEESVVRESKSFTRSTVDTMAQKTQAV
In words: 125I-C5a competitive receptor binding (SPA) on HMDM. Conditions: for IC50: 25 pM 125I-C5a, 95% confidence intervals in brackets. From the text: (§1) The scintillation proximity assay (SPA) was used to study ligand binding interactions with the receptor. The basic principle of the assay involved coupling receptor membrane preparations to coated SPA beads. When a radiolabelled ligand, which is able to bind to the receptor coupled onto the SPA bead, interacts with the receptor it will be close enough in proximity to activate the SPA bead. The radiolabel emits radiation that leads to the production of a light signal by activation of the scintillant in the bead. More specifically for our studies, receptor binding studies were performed using Polyvinyltoluene (PVT) scintillation beads, which have wheat germ agglutinin (WGA) covalently attached on the surface (Perkin Elmer). These beads allow for the development of a homogeneous GPCR radioligand binding assay using cellular membranes or whole cells. Briefly, receptor SPA studies were performed in 96-well white isoplates with clear flat bottoms (Perkin Elmer). ^125I-C5a (~25 pM) (specific activity, 2,200 Ci/mmol) (Perkin Elmer) was added to either CHO-C5aR membrane preparations (~2 µg/well) or HMDM (25,000 cells/well). SPA beads (200 µg/well) were then added, followed by the addition of various concentrations of competing ligands (6 pM to 100 µM) in a total volume of 80 µL of buffer A (CHO-C5aR) or B (HMDM) (50 mM Tris-HCl, pH 7.4, 0.5% BSA, and either 5 mM MgCl2, 1 mM CaCl2 (A) or 3 mM MgCl2, 0.1 mM CaCl2 (B)). The final reaction volume per well comprised 20 µL of ligand/buffer, 20 µL of PVT WGA SPA beads, 20 µL of membrane/cells and the assay was initiated by the addition of 20 µL of ^125I-C5a. The plate was then sealed using TopSeal-A (Perkin Elmer) sealing film and incubated with shaking for 1 h at room temperature. Radioligand binding was then assessed for 30 s/well using a 1450 Microbeta scintillation counter (Perkin Elmer). All binding and subsequent assay data, unless stated otherwise, was analysed using GraphPad Prism 5.0c (GraphPAD Software Inc., San Diego, CA, USA).

Experiment [2] concerns the target T1, human C5aR. The experiment is described as follows: 125I-C5a competitive receptor binding (SPA) on CHO-C5aR membranes. As to conditions: for IC50: CHO-C5aR membranes, 25 pM 125I-C5a, 95% confidence intervals in brackets. On the procedure: Membranes were prepared from CHO-C5aR cells by modification of a previously described method. Briefly, cells were washed with PBS, pH 7.4, and harvested into buffer (50 mM Tris-HCl, pH 7.4, 5 mM MgCl2, 1 mM CaCl2) before homogenising with a Polytron homogeniser for 3 min on setting 22. Cells were centrifuged at 150× g for 5 min at 4 °C. The supernatant was recovered and centrifuged at 22,000× g for 1 h at 4 °C. Membrane pellets were then resuspended in 0.4 mL of ice-cold assay buffer A (50 mM Tris-HCl, pH 7.4, 5 mM MgCl2, 1 mM CaCl2, 0.5% bovine serum albumin (BSA) (Sigma Aldrich) containing 10% glycerol) with aliquots stored at −80 °C. The protein concentration of the membrane preparations was determined by the Bradford method.
as §1

For experiment [3], the target named is T1, human C5aR. In words: Alphascreen SureFire phospho-ERK1/2 assay in HMDM. It counts as cell-based. Conditions: for EC50: 95% confidence intervals in brackets, read-out: ERK (EC50). On the procedure: (§2) Alphascreen (Amplified Luminescent Proximity Homogeneous Assay Screen) SureFire phospho-ERK1/2 assay was performed according to manufacturers’ instructions (Perkin Elmer). AlphaScreen involves the use of two beads, denoted the donor and acceptor beads. When both beads are bound as a pair to an analyte and the donor bead is excited, a singlet oxygen is released which activates the acceptor bead. As there is a distance constraint here, only beads in close proximity can lead to further reactions that produce the detectable chemiluminescent signal. Briefly, HMDM and CHO-C5aR cells were serum starved and incubated in 96-well tissue culture plates (Nunc) overnight at 60,000 and 50,000 cells/well, respectively. Ligands were prepared in serum-free media at a final DMSO concentration of 1%. Ligands were incubated at room temperature for 10 and 15 min with HMDM and CHO-C5aR, respectively. Media was removed and cells were lysed with lysis buffer for 10 min on a shaker, 4 μL of lysate was transferred to a white 96-well half area plate (Perkin Elmer) and incubated in the presence of 7 μL of reaction mix. The plate was sealed with TopSeal-A, incubated for 2 h at 37 °C and measured on an Envision plate reader (Perkin Elmer). Each data point was performed in triplicate and repeated in at least three separate experiments.
In general terms: Alpha assays give light when donor and acceptor beads are brought close together.

Experiment [4] deals with T1, human C5aR. The experiment is described as follows: Alphascreen SureFire phospho-ERK1/2 assay in CHO-C5aR cells. It counts as cell-based. As to conditions: for EC50: 95% confidence intervals in brackets, read-out: ERK (EC50). The protocol:
as §2

Experiment [5] addresses T1, human C5aR. The experiment is described as follows: EPIC label-free optical system on HMDM. It counts as cell-based. Conditions: peak response ~5 min, 95% confidence intervals in brackets. On the procedure:
(§3) HMDM were seeded, at 50,000 cells/well and CHO-C5aR and CHO-K1 at 7,500 cells/well, into fibronectin-coated cell-based EPIC® plates (Corning) and incubated overnight. Prior to ligand addition, media was exchanged for HBSS (Invitrogen Life Technologies): 20 mM HEPES (Sigma Aldrich) buffer, supplemented with 0.5% DMSO, and allowed to equilibrate at 26 °C for 1 h (HMDM) or 2 h (CHO-C5aR and CHO-K1) within the instrument. Agonists were prepared at a final DMSO concentration of 0.5% in HBSS:HEPES buffer. After ligand addition, measurements were taken continuously for 1–2 h at 26 °C. Peak amplitude response (Figure 2) was measured for data analysis using Corning EPIC® software.

Experiment [6] deals with T1, human C5aR. The experiment is described as follows: EPIC label-free optical system on CHO-C5aR cells. It counts as cell-based. As to conditions: peak response ~5 min, 95% confidence intervals in brackets. On the procedure: as §3
Experiment [7] addresses T1, human C5aR. The experiment is described as follows: xCELLigence label-free impedance system on HMDM. Conditions: predominant peak ~3.5 min, 95% confidence intervals in brackets. Format: cell-based. The protocol: (§4) HMDM were seeded at 30,000 cells/well, CHO-C5aR at 5,000 cells/well and CHO-K1 at 7,500 cells/well and incubated overnight in 384-well E-Plates (Roche). Ligand preparation and cell treatment was as described for the EPIC® protocol above. However, during the buffer exchange equilibration steps, cells were kept in the incubator at 37 °C with 5% CO2. HMDM were media exchanged with serum-free IMDM and incubated for 2 h prior to ligand addition with recordings at 37 °C. Ligands for the HMDM experiments were prepared in serum-free media. To ensure consistency with the EPIC® data, time point for data analysis was determined by a number of different factors, mainly maximum response of predominant peak (Figure 2), but point at which the EC50 was stable over this time according to the RTCA software was also used to confirm the time point

Experiment [8] deals with T1, human C5aR. The experiment is described as follows: xCELLigence label-free impedance system on CHO-C5aR cells. Conditions: predominant peak ~3.5 min, 95% confidence intervals in brackets. Format: cell-based. The protocol: as §4
The subject of experiment [9] is C5aR. Also on record: method as in PMID 7930622. As to conditions: neutrophils; cited from earlier work.
For experiment [10], the system named is C5aR. Conditions: different cell types and assay platforms; cited from earlier work.

Turning to `CN[C@@H](Cc1ccccc1)C(=O)N[C@@H](CCCCN)C(=O)N1CCC[C@H]1C(=O)N[C@H](CC1CCCCC1)C(=O)N[C@H](CC1CCCCC1)C(=O)N[C@H](CCCNC(=N)N)C(=O)O` [Peptide agonist, NMePhe-Lys-Pro-dCha-dCha-dArg-COOH] (H-[NMeF]KP[dCha][dCha][dR]-OH), the IC50 on human C5aR [1] stood at 132 nM; at human C5aR [2], 47 nM. Further, the “ERK response relative to the native ligand C5a (efficacy)” value at human C5aR [3] is reported as “characteristics of a partial agonist; also recorded: partial agonist activity”; at human C5aR [4], “potentiation of the response relative to the native ligand”. Further, the EC50 at human C5aR [3] was found to be 120 nM; on human C5aR [4], 5 nM; on human C5aR [5], 563 nM; on human C5aR [6], 347 nM; at human C5aR [7], 546 nM; on human C5aR [8] it was 351 nM. The “ERK EC50 relative to that of C5a” value on human C5aR [4] was ~ 30 fold. Also, the “Functional character in myeloperoxidase release” value with C5aR [9] is recorded as “full agonist”.

As for `CN[C@@H](Cc1ccccc1)C(=O)N[C@@H](CCCCN)C(=O)N1CCC[C@H]1C(=O)N[C@H](CC1CCCCC1)C(=O)N[C@H](Cc1cccc2ccccc12)C(=O)N[C@H](CCCNC(=N)N)C(=O)O` [Peptide partial agonist, NMePhe-Lys-Pro-dCha-dNal-dArg-COOH] (H-[NMeF]KP[dCha][d1Nal][dR]-OH), the “ERK response relative to the native ligand C5a (efficacy)” value on human C5aR [3] and on human C5aR [4] was “approximately half of the response relative to C5a” in each case.

As to C5a des-Arg, the “Difference in binding IC50 relative to C5a” value is on record as ~ 2 fold at human C5aR [1] and ~ 6 fold on human C5aR [2] (CHO-C5aR). For the same molecule, in the experiment with C5aR [10], the “Reduction in potency compared to C5a” value was 10–1,000 fold.

B1: C5a: endogenous 74 residue protein ligand of human C5aR, purchased from Sigma Aldrich and Sino Biological Inc (protein, UniProt P01031 678-751, looked up)
C5a anaphylatoxin: TLQKKIEEIAAKYKHSVVKKCCYDGACVNNDETCEQRAARISLGPRCIKAFTECCVVASQLRANISHKDMQLGR
modifications: C5a anaphylatoxin
notes: endogenous 74 residue protein ligand of human C5aR, purchased from Sigma Aldrich and Sino Biological Inc
For B1, the values for the IC50 with human C5aR [1] and in the experiment with human C5aR [2] were 1.2 nM and 0.2 nM, respectively. Besides, the EC50 with human C5aR [3] came to 0.47 nM; with human C5aR [4] it was 0.15 nM; with human C5aR [5], 107 nM; in the experiment with human C5aR [6], 24 nM; in the experiment with human C5aR [7] it was 89 nM; with human C5aR [8], 16 nM.

B2: C5a des-Arg (protein)
chain: TLQKKIEEIAAKYKHSVVKKCCYDGACVNNDETCEQRAARISLGPRCIKAFTECCVVASQLRANISHKDMQLG
modifications: glycosylated (N-glycan at Asn64 of C5a, Asn741 of precursor, by convention); three intrachain disulfides
notes: C5a minus its C-terminal arginine, purchased from Merck
B2: the IC50 with human C5aR [1] is 2.5 nM; in the experiment with human C5aR [2], 1.2 nM and 1.23 nM. The EC50 was determined as 0.55 nM in the experiment with human C5aR [3]; 2 nM with human C5aR [4]; 47 nM with human C5aR [5]; 11 nM with human C5aR [6]; 20 nM with human C5aR [7]; 44 nM with human C5aR [8].
